Assay [1] concerns the target T1, PepT1-expressing Caco-2 cells (Homo sapiens, UniProt P46059).
T1 construct: GlySar uptake by the PepT1-expressing Caco-2 cells; host or cells: Caco-2 cells
T1 sequence (P46059 1-708): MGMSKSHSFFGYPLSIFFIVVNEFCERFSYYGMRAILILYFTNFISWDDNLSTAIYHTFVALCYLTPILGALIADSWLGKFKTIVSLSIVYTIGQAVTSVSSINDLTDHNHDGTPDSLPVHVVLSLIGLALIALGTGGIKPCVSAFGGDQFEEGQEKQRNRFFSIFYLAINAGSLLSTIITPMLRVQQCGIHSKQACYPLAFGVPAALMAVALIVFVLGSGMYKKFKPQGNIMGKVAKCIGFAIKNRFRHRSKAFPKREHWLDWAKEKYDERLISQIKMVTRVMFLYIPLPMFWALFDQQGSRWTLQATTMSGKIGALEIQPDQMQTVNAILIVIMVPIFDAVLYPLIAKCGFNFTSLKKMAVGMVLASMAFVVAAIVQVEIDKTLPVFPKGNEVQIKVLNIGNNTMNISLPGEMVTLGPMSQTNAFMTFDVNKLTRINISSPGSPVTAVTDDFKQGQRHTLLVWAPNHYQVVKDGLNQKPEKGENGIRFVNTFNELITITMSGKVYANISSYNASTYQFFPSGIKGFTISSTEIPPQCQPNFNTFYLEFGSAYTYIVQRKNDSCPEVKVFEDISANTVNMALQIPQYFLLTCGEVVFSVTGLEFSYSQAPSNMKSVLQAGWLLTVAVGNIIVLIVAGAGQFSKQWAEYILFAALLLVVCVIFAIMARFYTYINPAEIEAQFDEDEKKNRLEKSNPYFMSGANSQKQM
To be noted: read-out: reported Km for GlySar uptake; cited from earlier work.

For another assay, the target named is T2, canine PepT1 (cPepT1) (Canis lupus familiaris, UniProt Q8WMX5).
T2 construct: endogenous in cells; host or cells: MDCK (Madin-Darby Canine Kidney) cells, whole-cell [3H]-GlySar uptake
T2 sequence (Q8WMX5 1-708): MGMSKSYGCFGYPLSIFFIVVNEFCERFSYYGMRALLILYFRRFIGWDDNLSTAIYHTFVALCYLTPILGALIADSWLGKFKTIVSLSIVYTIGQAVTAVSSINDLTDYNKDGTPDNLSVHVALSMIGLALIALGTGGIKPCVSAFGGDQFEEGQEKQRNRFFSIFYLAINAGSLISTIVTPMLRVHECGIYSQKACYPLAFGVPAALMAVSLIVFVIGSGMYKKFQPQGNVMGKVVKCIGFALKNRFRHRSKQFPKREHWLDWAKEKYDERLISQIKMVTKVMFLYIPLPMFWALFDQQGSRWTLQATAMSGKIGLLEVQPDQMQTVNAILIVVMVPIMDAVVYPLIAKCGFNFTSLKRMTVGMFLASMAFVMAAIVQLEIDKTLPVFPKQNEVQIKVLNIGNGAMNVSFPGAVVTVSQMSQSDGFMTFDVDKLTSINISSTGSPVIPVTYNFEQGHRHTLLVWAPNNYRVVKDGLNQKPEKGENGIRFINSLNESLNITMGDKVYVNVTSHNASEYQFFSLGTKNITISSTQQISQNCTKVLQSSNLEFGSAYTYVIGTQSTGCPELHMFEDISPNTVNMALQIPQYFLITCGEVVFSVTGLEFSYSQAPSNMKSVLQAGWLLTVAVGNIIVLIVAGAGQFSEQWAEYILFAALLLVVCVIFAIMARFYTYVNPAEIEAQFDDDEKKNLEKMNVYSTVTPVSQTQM
As to the kind of experiment: Substrate regulation of H+-dependent GlySar uptake capacity of MDCK cells cultured in DMEM (Example 3, Trials 1 and 2). It counts as cell-based. The note with it: 10 mM in DMEM, 24 h of culture. How it is done: All cells were plated (60,000/2 cm^2 well) and cultured (95% air/5% CO2, 37° C.) for 24 h in Dulbecco's Modified Eagle Media/10% fetal calf serum (FCS)/1%Antibiotic/Antimicrobial solution (ABAM) (DMEM media). Following these initial common culture conditions, cells then were cultured in DMEM, or DMEM that contained 10 mM of Camosine, GlyPhe, Phe, or Gly. Media were changed every 24 h. Media treatments (n=8) were as follows:
The measurement of [^3H]Glysarcosine uptake was performed by using a 24-well cluster tray method (Kilberg M S. Measurement of amino acid transport by hepatocytes in suspension and monolayer culture. Methods Enzym 1989; 173:564-575. Matthews J C, Aslanian A, McDonald K K, Yang W, Malandro M S, Novak D A, Kilberg M S. An expression system for mammalian amino acid transport using a stably maintained episomal vector. Anal Biochem 1997; 254:208-214), and used in Examples 1 and 2. Cells were cultured for 30 min in air at 37° C. in depletion medium (25 mM Hepes/Tris (pH 7.5), 140 mM NaCl, 5.4 mM KCl, 1.8 mM CaCl2, 0.8 mM MgSO4, and 5 mM glucose), to normalize intracellular nutrient pools before transport. The transport assays are initiated by replacing depletion medium with uptake medium (Depletion medium adjusted to pH 6.0) that contained 100 μM GlySar (5 μCi/mL, with [^3H]-GlySar supplying 2.88% of total GlySar). After a 30 minute incubation period, transport was terminated with four rinses of 4° C. depletion medium (pH 7.5). Two hundred and twenty μL of 10% trichloroacetic acid was added to each well, and the radioactivity of the supernatant quantified by liquid scintillation counting. The cells of each well are solubilized in 0.2 N NaOH/0.2% SDS and the protein quantified by using the modified Lowry assay, using bovine serum as a standard. Id. Peptide uptake will be reported as pmol* mg^−1 protein* 30 min^−1. Uptake measurements were taken after 24, 48, and 72 hours of culture in treatment media.
The MDCK cell line was maintained as described previously in the Methods section of Trial 1. […]

Square brackets hold non-standard residues; d marks the D form. Peptide text beside a SMILES is read from it. Sar = CNCC(=O)O

One may read the Km as the concentration of substrate that gives half-maximal velocity.

Turning to `CN(CC(=O)O)C(=O)CN` [GlySar, glycylsarcosine] (H-Gly-[Sar]-OH), in assay [1], the Km is 1100 µM. The “increase in GlySar uptake capacity over DMEM control media” value at canine PepT1 (cPepT1) is “about 30%”.

Source of the values: US6803186B2, “Compositions and methods for increasing amino acid absorption in mammals” (The IAMS Company, priority 2001, dated 2004).
